For one compound, Activity results are on record in ChEMBL document CHEMBL1143399, “A small-molecule nitroimidazopyran drug candidate for the treatment of tuberculosis” (Nature, 2000).

Each structure is given as a SMILES string. Activity calls are given as the source filed them. The rule behind the calls is not given here.

Common to all, as to assay type: functional, organism-based
Settings in all cases: variant bovis BCG

The test system of experiment [1] is Mycobacterium tuberculosis. In words: Inhibition of lipid synthesis in log phase Mycobacterium bovis BCG assessed as [14C] acetate incorporation after 3 hrs by chromatography.
The test system of experiment [2] is Mycobacterium tuberculosis. In words: Inhibition of protein synthesis in log phase Mycobacterium bovis BCG assessed as [35S] incorporation after 3 hrs.
In experiment [3] the test system is Mycobacterium tuberculosis. The experiment can be described thus: Inhibition of nucleic acid synthesis in Mycobacterium bovis BCG.

For the compound `O=[N+]([O-])c1cn2c(n1)OC[C@@H](OCc1ccc(OC(F)(F)F)cc1)C2` [PRETOMANID], the result in experiment [1] and in experiment [3] was inactive. Further, the outcome in experiment [2] was Active.
